Data taken from publication PMC12415608 (Molecular biology of the cell, 2025).

Molecular target: PaFimX (Pseudomonas aeruginosa, UniProt Q9HUK6)
Experiment: isothermal titration calorimetry
Assay type: binding

## Nc1nc2c(ncn2[C@@H]2O[C@@H]3CO[P@](=O)(O)O[C@H]4[C@@H](O)[C@H](n5cnc6c(=O)[nH]c(N)nc65)O[C@@H]4CO[P@](=O)(O)O[C@H]3[C@H]2O)c(=O)[nH]1 [cdG]
  Kd: 0.144 µM
